Experimental data as given in patent US7989420B2, “Smooth muscle relaxation” (New York Medical College, priority 2006, dated 2011).

How the values were obtained:
[1] = tested on: bovine pulmonary arteries (BPA); assay: Isometric force generation to serotonin (5-HT) in organ cultured BPA rings; format: cell-based; details: 24 h organ culture
Method: Organoid Culture Isolated Arteries for Heme Modulation. Intralobar BPA were isolated from slaughterhouse-derived bovine calf lungs, cleaned from surrounding tissue, and placed in 37° C. Dulbecco's Modified Eagle Medium (DMEM) containing 10% fetal bovine serum, penicillin, streptomycin, and fungizone (complete media). The arteries were isolated and cut into rings ˜2 mm in diameter and width, and the endothelium was removed by gentle rubbing of the lumen. Various compounds (i.e. ALA, FeSO4(Fe), deferoxamine) were added as described in the Results to various experimental groups, and these arteries were organ cultured overnight for 24 h in complete media in a 37° C.-5% CO2 incubator. Preliminary experiments on the time course for detection protoporphyrin IX accumulation and the effects of organ culture with doses of ALA in the 10-100 μM concentration range on contractile function, and minimizing the duration of organ culture were considerations that contributed to selecting the 24 h culture period used in this study.
Studies on the Regulation of Contractile Function. Following the overnight incubation, arterial rings were mounted on wire hooks attached to Grass (FT03) force displacement transducers for measurement of changes in isometric force. Tension was adjusted to 5 g, which is the optimal passive force for maximal contraction. Changes in force were recorded on a Grass polygraph (model 7), while vessels were incubated in 10-ml baths (Metro Scientific), which were individually thermostated (37° C.) in Krebs buffer gassed with 21% O2-5% CO2 (balance N2) in the absence of compounds used to modulate BPA protoporphyrin IX levels. Arteries were incubated for 1 h during which passive tension was adjusted to maintain 5 grams. The vessels were then depolarized with Krebs containing 123 mM KCl (High K^+) in place of NaCl, followed by re-equilibration with Krebs, prior to exposure to the experimental protocols. Following the wash with Krebs buffer after the High K^+ treatment, and a 30 min equilibration, BPA were then contracted with serotonin (5-HT) in a dose dependent manner to determine the response to this contractile agent. In some experiments, BPA were pretreated with the sGC inhibitor, 10 μM ODQ, for 15 min before contraction with serotonin. The effects of ODQ on relaxation to NO was determined by first contracting organ cultured control and ODQ-treated BPA with 1 μM 5-HT (after the initial exposure to increasing concentrations of 5-HT and a 30 min equilibration in Krebs).

endothelium-rubbed aorta = assay: Protoporphyrin IX fluorescence in aorta of rats treated with ALA in vivo; design: species or system rat; details: single dose 60 mg/kg ALA i.p., 24 hours after treatment, vs saline-injected rats
Method: The rats were pretreated with 60 mg/kg ALA or with a saline vehicle (i.p.). After 24 hours they were anesthetized with 50 mg/kg sodium pentobarbital and the aorta was removed for in vitro studies. Isolated aortic rings were studied for changes in protoporphyrin IX fluorescence and force under the same conditions similar to those used for bovine pulmonary arteries described above, except that 1 gram of passive force was used.

NCC(=O)CCC(=O)O [ALA, δ-aminolevulinic acid]
force generation to 5-HT ([1]; 10 μM ALA, appeared to depress force at higher doses of 5-HT): did not reach statistical significance
decrease in force generation to 5-HT ([1]; 50 μM and 100 μM ALA): 50-90%
force generation to 5-HT ([1]; 100 μM ALA, 0.1-10 μM 5-HT in the absence of ALA): markedly inhibit force generation
protoporphyrin IX fluorescence in endothelium-rubbed aorta (endothelium-rubbed aorta): increased in protoporphyrin IX fluorescence
